# Measured values published in the supplement of paper PMC8967900.
# Assays:
# Assay in all cases: selective drug sensitivity score (sDSS, relative to normal bone marrow) (sDSS (score)); higher = more potent and effective on the cell line relative to normal bone marrow cells
# Conditions in all cases: 72 h
# ALL-PO = tested on: ALL-PO
# CCRF-CEM = tested on: CCRF-CEM
# COG-LL-332h = tested on: COG-LL-332h
# COG-LL-394h = tested on: COG-LL-394h
# HAL-01 = tested on: HAL-01
# KASUMI-10 = tested on: KASUMI-10
# KOPN-8 = tested on: KOPN-8
# MHH-CALL-2 = tested on: MHH-CALL-2
# MOLT-14 = tested on: MOLT-14
# MOLT-16 = tested on: MOLT-16
# NALL-1 = tested on: NALL-1
# NALM-6 = tested on: NALM-6
# P12-ICHIKAWA = tested on: P12-ICHIKAWA
# P30-OHKUBO = tested on: P30-OHKUBO
# PEER = tested on: PEER
# PF-382 = tested on: PF-382
# RCH-ACV = tested on: RCH-ACV
# REH = tested on: REH
# RPMI-8402 = tested on: RPMI-8402
# TMD5 = tested on: TMD5
# 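Further: ALL cell lines in 384-well plates, five doses spanning 10,000-fold, each plate scaled between vehicle and 100 µmol/L benzalkonium chloride controls, sDSS an adapted area-under-curve metric.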
Structure (SMILES),selective drug sensitivity score (ALL-PO),selective drug sensitivity score (CCRF-CEM),selective drug sensitivity score (COG-LL-332h),selective drug sensitivity score (COG-LL-394h),selective drug sensitivity score (HAL-01),selective drug sensitivity score (KASUMI-10),selective drug sensitivity score (KOPN-8),selective drug sensitivity score (MHH-CALL-2),selective drug sensitivity score (MOLT-14),selective drug sensitivity score (MOLT-16),selective drug sensitivity score (NALL-1),selective drug sensitivity score (NALM-6),selective drug sensitivity score (P12-ICHIKAWA),selective drug sensitivity score (P30-OHKUBO),selective drug sensitivity score (PEER),selective drug sensitivity score (PF-382),selective drug sensitivity score (RCH-ACV),selective drug sensitivity score (REH),selective drug sensitivity score (RPMI-8402),selective drug sensitivity score (TMD5)
CC(C)Oc1ccc(-c2nn([C@@H](C)c3oc4ccc(F)cc4c(=O)c3-c3cccc(F)c3)c3ncnc(N)c23)cc1F [TGR-1202] (top concentration 2500 nM),3.84,-1.16,-1.56,-1.46,3.04,-2.56,4.54,-0.06,-2.56,-2.46,1.24,-1.16,-2.56,5.14,-1.86,-2.56,9.14,-1.76,-2.06,-2.56
CO[C@H](C(=O)[C@@H](O)[C@@H](C)O)[C@@H]1Cc2cc3cc(O[C@H]4C[C@@H](O[C@H]5C[C@@H](O)[C@H](O)[C@@H](C)O5)[C@@H](O)[C@@H](C)O4)c(C)c(O)c3c(O)c2C(=O)[C@H]1O[C@H]1C[C@@H](O[C@H]2C[C@@H](O[C@H]3C[C@](C)(O)[C@H](O)[C@@H](C)O3)[C@H](O)[C@@H](C)O2)[C@H](O)[C@@H](C)O1 [Plicamycin] (top concentration 10000 nM),-15.9,-11.3,-6.26,0.04,-17.9,-2.36,-17.8,-6.26,-10.3,-5.06,-17,7.34,-13.8,-16.3,-12.8,-12.1,-17.3,-13.4,-5.86,-13.8
COc1cc2c(cc1-c1c(C)noc1C)ncc1[nH]c(=O)n([C@H](C)c3ccccn3)c12 [I-BET151] (top concentration 10000 nM),6.36,0.96,-2.24,0.86,1.26,5.66,11.8,6.96,0.46,5.96,-0.14,3.46,4.06,7.16,1.26,4.06,12.3,-2.24,4.36,-3.54
COc1ccc(COc2cc3oc(=O)c4cc(C(C)O)ccc4c3cc2OC)cc1 (stereo not given) [Palomid-529] (top concentration 10000 nM),2.86,0.86,0.46,-0.24,-0.24,-0.24,10.3,1.06,2.76,4.36,-0.04,-0.24,-0.14,-0.24,4.16,1.06,-0.14,6.66,2.86,-0.24
CC(=O)c1c(C)c2cnc(Nc3ccc(N4CCNCC4)cn3)nc2n(C2CCCC2)c1=O [Palbociclib] (top concentration 10000 nM),4.08,4.38,3.68,-5.62,1.48,0.88,16.5,3.68,2.48,8.58,-1.72,3.68,4.78,9.58,5.38,5.48,16.1,3.08,5.98,-5.22
CCN(CC)CCNC(=O)c1c(C)[nH]c(/C=C2\C(=O)Nc3ccc(-c4csc(-c5ccccc5)n4)cc32)c1C [Amcasertib] (top concentration 10000 nM),6.7,6.7,7.2,1.3,7.4,5.2,-1.1,4.9,3.4,3.5,5.2,0,0,3.9,4,2.7,3.3,3.6,-1.5,-1.7
CNc1ncc2cc(-c3cc(NC(=O)NCCC(C)(C)C)c(F)cc3C)c(C)nc2n1 (top concentration 10000 nM),4.86,5.56,9.06,5.76,4.66,3.96,21.3,9.76,12.5,5.06,4.96,6.66,11,5.86,15,9.66,12.7,-2.24,0.66,7.86
CCN(CC)CCNC(=O)c1c(C)[nH]c(/C=C2\C(=O)Nc3ccc(F)cc32)c1C [Sunitinib] (top concentration 1000 nM),14.2,-1.44,-1.44,-0.34,3.36,10.4,-1.44,1.86,0.76,-1.44,-1.44,-1.44,-1.34,0.76,-0.24,-1.44,1.46,-1.44,-1.24,3.26
CC(=O)c1cc2c(o1)C(=O)c1ccccc1C2=O [Napabucasin] (top concentration 20000 nM),0.92,-1.08,2.32,-9.68,-0.38,0.92,3.72,3.72,-0.98,0.12,-7.38,-1.48,-1.28,0.42,0.62,-0.28,-1.38,-1.58,-6.08,-1.28
CCS(=O)(=O)N1CCN(c2ccc(Nc3ncc(C(N)=O)c(NC4CC4)n3)cc2)CC1 [Cerdulatinib] (top concentration 10000 nM),6.04,-6.26,-4.26,-8.56,-11.9,0.24,3.14,-8.26,-3.16,-2.36,-8.76,1.44,-4.46,3.44,-0.16,-5.16,13.3,-5.16,-5.56,-4.46
COC(=O)N[C@@H](C)CNc1nccc(-c2cn(C(C)C)nc2-c2cc(Cl)cc(NS(C)(=O)=O)c2F)n1 [Encorafenib] (top concentration 1000 nM),0,0.2,0,0.2,0,0,16.2,1.7,0,1,0,3.5,1.7,1.3,0.9,1.5,1,1.6,0,0
Cn1ncc(Cl)c1-c1cc(C(=O)N[C@H](CN)Cc2ccc(F)c(F)c2)oc1Cl [Uprosertib] (top concentration 10000 nM),9,10.4,5.7,-0.6,3.9,-1.4,9.1,2.1,1.1,19.1,-1.4,2.9,1.9,6.5,8.5,4.6,8.3,9.6,3.4,1.2
Nc1ncnc2c1c(-c1cccc(OCc3ccccc3)c1)cn2[C@H]1C[C@@H](CN2CCC2)C1 [NVP-AEW541] (top concentration 10000 nM),3.98,-2.42,-1.52,2.48,0.58,3.58,-2.62,3.28,-1.62,-2.92,-0.42,-4.02,-2.72,-2.02,0.38,-1.52,1.18,0.88,-1.32,-7.62
CC1(C)CCC(c2ccc(Cl)cc2)=C(CN2CCN(c3ccc(C(=O)NS(=O)(=O)c4ccc(N[C@H](CCN5CCOCC5)CSc5ccccc5)c(S(=O)(=O)C(F)(F)F)c4)cc3)CC2)C1 [Navitoclax] (top concentration 10000 nM),23.6,17.4,8.42,19.2,14.8,26.4,23.2,21.1,12.7,12.2,22.9,11.7,17.6,16.8,12.2,13.7,3.32,4.92,7.42,16.9
CC(=O)O[C@]1(C(C)=O)CC[C@H]2[C@@H]3C=C(C)C4=CC(=O)CC[C@]4(C)[C@H]3CC[C@@]21C [Megestrol_acetate] (top concentration 10000 nM),17.9,-0.28,-0.58,1.62,3.32,-0.58,3.02,14.5,0.22,0.32,6.52,1.72,1.82,4.42,0.32,0.32,4.32,0.52,0.52,7.82
Cn1cc(-c2ccc(F)c(C(F)(F)F)c2)nc1C1CCN(c2ncnc3[nH]ncc23)CC1 (top concentration 10000 nM),0.66,0.86,1.56,-0.14,1.66,-0.14,9.76,0.26,-0.14,0.36,0.46,-0.14,-0.14,-0.14,1.66,-0.14,8.26,-0.14,-0.14,-0.14
FC(F)(F)c1ccc(CNc2ccc(Cc3c[nH]c4ncc(Cl)cc34)cn2)cn1 [Pexidartinib] (top concentration 10000 nM),6.68,-0.72,-2.22,-1.32,2.08,8.78,0.68,-0.92,-2.02,-0.72,-1.92,0.18,0.18,4.48,-0.32,-1.22,1.58,0.38,0.58,-2.22
